Measured values published in paper PMC6738096 (British Journal of Cancer, 2019).

Assay: Phase 1 dose-escalation trial: safety and tolerability (TEAEs, SAEs, DLT, MTD, RP2D)
Procedure: Endpoints included the incidence of DLTs (defined in the ‘Safety' section) in the first 28-day treatment cycle (cycle 1), the frequency and severity of adverse events (AEs) and serious AEs (SAEs) and changes in laboratory values, vital signs, physical examination findings and Eastern Cooperative Oncology Group (ECOG) performance status (PS).
The starting dose was 30 mg, which was determined by review of nonclinical toxicokinetic assessments. A treatment cycle comprised 28 days in the absence of disease progression or unacceptable toxicity. Patients received starting doses ranging from 30 mg once every 24 hours (Q24h) to 480 mg Q24h, and escalation proceeded based on a 3 + 3 design.
The subsequent cohort started at a reduced dosing regimen. Additional dosing schedules were once every 12 hours (Q12h) at 30 and 60 mg and once every 8 hours (Q8h) at 20 and 40 mg.
Toxicities were graded and recorded according to NCI CTCAE version 4.03. Patients were assessed for DLTs during the first 28-day cycle. A DLT was defined as any grade ≥ 3 nonhaematologic toxicity, according to NCI CTCAE version 4.03.

CC(C)NC(=O)[C@H]1CC[C@@H](n2c(NC(=O)c3ccc(F)cc3)nc3ccc(CN4CCC(C(C)(C)O)CC4)cc32)CC1 [TSR-011]
2 (12.5) Number (%): Patients with any TEAE leading to treatment discontinuation (20 mg Q8h (n = 16)) | Patients with any AE leading to death (20 mg Q8h (n = 16), none deemed related to treatment)
3 (9.7) n (%): Drug-related TEAE: Electrocardiogram QTc prolonged (40 mg Q8h (n = 31))
1 (3.2) n (%): Drug-related TEAE: Anaemia (40 mg Q8h (n = 31)) | Drug-related TEAE: Nausea (40 mg Q8h (n = 31)) | Drug-related TEAE: Peripheral oedema (40 mg Q8h (n = 31)) | Drug-related TEAE: Rash (40 mg Q8h (n = 31)) | Drug-related TEAE: Vomiting (40 mg Q8h (n = 31)) | Grade 3 TEAE: Asthenia (40 mg Q8h (n = 31)) | Grade 3 TEAE: Electrocardiogram QTc prolonged (40 mg Q8h (n = 31)) | Grade 3 TEAE: Metastases to the central nervous system (40 mg Q8h (n = 31)) | SAE class: Cardiac disorders (40 mg Q8h (n = 31)) | SAE class: Gastrointestinal disorders (40 mg Q8h (n = 31)) | SAE class: Neoplasms benign, malignant and unspecified (including cysts and polyps) (40 mg Q8h (n = 31)) | SAE class: Respiratory, thoracic and mediastinal disorders (40 mg Q8h (n = 31)) | SAE: Abdominal pain (40 mg Q8h (n = 31))
7 (43.8) n (%): Patients with ≥ 1 treatment-emergent SAE (20 mg Q8h (n = 16))
9 (56.3) Number (%): Patients with any study drug-related TEAE (20 mg Q8h (n = 16))
4 (12.9) n (%): SAE class: Infections and infestations (40 mg Q8h (n = 31))
12 (38.7) n (%): Patients with ≥ 1 treatment-emergent SAE (40 mg Q8h (n = 31))
13 (41.9) Number (%): Patients with any study drug-related TEAE (40 mg Q8h (n = 31))
14: Total number of treatment-emergent SAEs (20 mg Q8h (n = 16))
29 (93.5) Number (%): Patients with any TEAE (40 mg Q8h (n = 31))
12 (38.7) Number (%): Patients with any serious TEAE (40 mg Q8h (n = 31))
2 (12.5) n (%): Drug-related TEAE: Constipation (20 mg Q8h (n = 16)) | Drug-related TEAE: Vomiting (20 mg Q8h (n = 16)) | Grade 3 TEAE: Anaemia (20 mg Q8h (n = 16)) | SAE class: General disorders and administration-site conditions (20 mg Q8h (n = 16)) | SAE class: Neoplasms benign, malignant and unspecified (including cysts and polyps) (20 mg Q8h (n = 16)) | SAE: Disease progression (20 mg Q8h (n = 16))
1 (6.3) n (%): Drug-related TEAE: Abnormal dreams (20 mg Q8h (n = 16)) | Drug-related TEAE: Asthenia (20 mg Q8h (n = 16)) | Drug-related TEAE: Decreased appetite (20 mg Q8h (n = 16)) | Drug-related TEAE: Diarrhoea (20 mg Q8h (n = 16)) | Drug-related TEAE: Dysaesthesia (20 mg Q8h (n = 16)) | Drug-related TEAE: Electrocardiogram QTc prolonged (20 mg Q8h (n = 16)) | Drug-related TEAE: Fatigue (20 mg Q8h (n = 16)) | Drug-related TEAE: Hot flush (20 mg Q8h (n = 16)) | Grade 3 TEAE: Ascites (20 mg Q8h (n = 16)) | Grade 3 TEAE: Asthenia (20 mg Q8h (n = 16)) | Grade 3 TEAE: Fatigue (20 mg Q8h (n = 16)) | Grade 3 TEAE: Metastases to the central nervous system (20 mg Q8h (n = 16)) | SAE class: Gastrointestinal disorders (20 mg Q8h (n = 16)) | SAE class: Hepatobiliary disorders (20 mg Q8h (n = 16)) | SAE class: Infections and infestations (20 mg Q8h (n = 16)) | SAE class: Metabolism and nutrition disorders (20 mg Q8h (n = 16)) | SAE class: Musculoskeletal and connective tissue disorders (20 mg Q8h (n = 16)) | SAE class: Nervous system disorders (20 mg Q8h (n = 16)) | SAE class: Vascular disorders (20 mg Q8h (n = 16)) | SAE: Asthenia (20 mg Q8h (n = 16)) | SAE: Basal cell carcinoma (20 mg Q8h (n = 16)) | SAE: Bone pain (20 mg Q8h (n = 16)) | SAE: Deep-vein thrombosis (20 mg Q8h (n = 16)) | SAE: Dehydration (20 mg Q8h (n = 16)) | SAE: Gastric haemorrhage (20 mg Q8h (n = 16)) | SAE: Mastoiditis (20 mg Q8h (n = 16)) | SAE: Mental impairment (20 mg Q8h (n = 16)) | SAE: Metastases to the central nervous system (20 mg Q8h (n = 16)) | SAE: Portal vein thrombosis (20 mg Q8h (n = 16)) | SAE: Seizure (20 mg Q8h (n = 16))
2 (6.5) n (%): Drug-related TEAE: Constipation (40 mg Q8h (n = 31)) | Drug-related TEAE: Insomnia (40 mg Q8h (n = 31)) | Grade 3 TEAE: Anaemia (40 mg Q8h (n = 31)) | SAE class: Blood and lymphatic system disorders (40 mg Q8h (n = 31)) | SAE class: General disorders and administration-site conditions (40 mg Q8h (n = 31)) | SAE class: Nervous system disorders (40 mg Q8h (n = 31)) | SAE: Anaemia (40 mg Q8h (n = 31))
16 (100.0) Number (%): Patients with any TEAE (20 mg Q8h (n = 16))
7 (43.8) Number (%): Patients with any serious TEAE (20 mg Q8h (n = 16))
5 (16.1) Number (%): Patients with any TEAE leading to treatment discontinuation (40 mg Q8h (n = 31))
159: Total number of TEAEs (20 mg Q8h (n = 16))
0 n (%): Drug-related TEAE: Anaemia (20 mg Q8h (n = 16)) | Drug-related TEAE: Dysgeusia (20 mg Q8h (n = 16)) | Drug-related TEAE: Headache (20 mg Q8h (n = 16)) | Drug-related TEAE: Increased transaminases (20 mg Q8h (n = 16)) | Drug-related TEAE: Insomnia (20 mg Q8h (n = 16)) | Drug-related TEAE: Myalgia (20 mg Q8h (n = 16)) | Drug-related TEAE: Nausea (20 mg Q8h (n = 16)) | Drug-related TEAE: Peripheral oedema (20 mg Q8h (n = 16)) | Drug-related TEAE: Rash (20 mg Q8h (n = 16)) | Grade 3 TEAE: Dyspnoea (20 mg Q8h (n = 16)) | Grade 3 TEAE: Electrocardiogram QTc prolonged (20 mg Q8h (n = 16)) | SAE class: Blood and lymphatic system disorders (20 mg Q8h (n = 16)) | SAE class: Cardiac disorders (20 mg Q8h (n = 16)) | SAE class: Respiratory, thoracic and mediastinal disorders (20 mg Q8h (n = 16)) | SAE: Abdominal pain (20 mg Q8h (n = 16)) | SAE: Anaemia (20 mg Q8h (n = 16)) | SAE: Dyspnoea (20 mg Q8h (n = 16)) | SAE: Gastric ulcer helicobacter (20 mg Q8h (n = 16)) | SAE: Infection (20 mg Q8h (n = 16)) | SAE: Lower respiratory tract infection (20 mg Q8h (n = 16)) | SAE: Pericardial effusion (20 mg Q8h (n = 16)) | SAE: Pleural effusion (20 mg Q8h (n = 16)) | SAE: Pneumonia (20 mg Q8h (n = 16)) | SAE: Subarachnoid haemorrhage (20 mg Q8h (n = 16)) | Drug-related TEAE: Abnormal dreams (40 mg Q8h (n = 31)) | Drug-related TEAE: Asthenia (40 mg Q8h (n = 31)) | Drug-related TEAE: Decreased appetite (40 mg Q8h (n = 31)) | Drug-related TEAE: Diarrhoea (40 mg Q8h (n = 31)) | Drug-related TEAE: Dysaesthesia (40 mg Q8h (n = 31)) | Drug-related TEAE: Dysgeusia (40 mg Q8h (n = 31)) | Drug-related TEAE: Fatigue (40 mg Q8h (n = 31)) | Drug-related TEAE: Headache (40 mg Q8h (n = 31)) | Drug-related TEAE: Hot flush (40 mg Q8h (n = 31)) | Drug-related TEAE: Increased transaminases (40 mg Q8h (n = 31)) | Drug-related TEAE: Myalgia (40 mg Q8h (n = 31)) | Grade 3 TEAE: Ascites (40 mg Q8h (n = 31)) | Grade 3 TEAE: Dyspnoea (40 mg Q8h (n = 31)) | Grade 3 TEAE: Fatigue (40 mg Q8h (n = 31)) | SAE class: Hepatobiliary disorders (40 mg Q8h (n = 31)) | SAE class: Metabolism and nutrition disorders (40 mg Q8h (n = 31)) | SAE class: Musculoskeletal and connective tissue disorders (40 mg Q8h (n = 31)) | SAE class: Vascular disorders (40 mg Q8h (n = 31)) | SAE: Asthenia (40 mg Q8h (n = 31)) | SAE: Basal cell carcinoma (40 mg Q8h (n = 31))
